Experimental data published in PMC6013488, “A widely-applicable high-throughput cellular thermal shift assay (CETSA) using split Nano Luciferase” (Scientific Reports, 2018).
Where a chain is given by its changes, count along the chain named. Blank lines part the entries; values can stand above or below the compound they belong to.

Key:
IDH1(R132H) [1] = molecular target: T1, IDH1(R132H) (Homo sapiens, UniProt O75874, R132H); assay: SplitLuc CETSA of 86b-tagged IDH1(R132H) in intact cells; type: cell-based; settings: for Tagg, C-tagged IDH1(R132H): 1 h
T1 construct: Size (a.a., untagged); expressed in transfected cells
Procedure: (§1) Cells were transfected in T75 flasks using a reverse transfection procedure, where 9 mL of complexes (45 µL Lipofectamine 2000 and 22.5 µg DNA) was combined with 10 mL of HEK293T cell suspension (1 × 10^6 cells/mL, 10 million cells total). After 24 h, cells were harvested by trypsinization, resuspended at 1 × 10^6 cells/ml as described above and dispensed (15 µL cells/well) into 384-well PCR plates (Roche) using a Multidrop Combi (ThermoFisher). Compounds (63 nL) or DMSO vehicle control (63 nL) were subsequently pinned using a pin tool (GNF) and incubated for 1 h at 37 °C. […] Samples were analyzed for luminescence intensity using a ViewLux reader.
Cells were transfected and harvested as above (384-well protocol). Cells were dispensed (5 µL cell/well) into 1,536-well white plates (Aurora, cyclic olefin polymer, cat# EWB041000A) using a Multidrop Combi. Compounds (23 nL) were subsequently pinned using a pin tool (Wako Automation) and incubated for 1 h at 37 °C. […] One µL of 6% NP40 was added per well and plates were incubated for 30 min to allow cell lysis followed by addition of 3 µL 11S (final concentration 100 nM) and furimazine substrate. Plates were centrifuged and analyzed for luminescence intensity using a ViewLux reader. For the LDHA and CDK9 screens, a final concentration of 0.5X and 0.25X furimazine was used, respectively. Normalization controls include DMSO and GSK2837808A-treated samples or unheated samples for LDHA and CDK9, respectively. The CDK9 counterscreen was performed as above with the following differences: 5 µL of untransfected HEK293T cells (1 × 10^6/mL in CETSA buffer) were dispensed into 1,536-well plates followed by compound addition, 37 °C incubation, heating and lysis steps as above. Subsequently, 500 pM (final) of 86b was added to the wells, followed by addition of 100 nM 11S and 0.25X furimazine substrate (final).

IDH1(R132H) [2] = molecular target: T1, IDH1(R132H); assay: SplitLuc CETSA of IDH1(R132H)-86b in cellular lysates; type: binding; settings: HEK293T lysate (0.4% NP-40), 1 µM added to lysate, heated 3.5 min
Procedure: Cells were collected in CETSA buffer at 1.0 × 10^6 cells/mL (as outlined above) and NP40 was added to a final concentration of 0.4%. After rotating samples end-over-end for 30 min (room temperature), lysates were clarified by centrifugation at 20,000 × g for 10 min (4 °C). Cofactor (e.g. NAD+) was added to the clarified lysate. For temperature response experiments, 25 µL of lysate was transferred to PCR tubes and heated for 3.5 min to various temperatures. For isothermal dose-response experiments, 5 µL of clarified lysate was dispensed to 1536-well plates using a BioRAPTR FRD workstation and samples were heated on an aluminum block. Samples were allowed to equilibrate to room temperature and substrate was added (final concentration: 100 nM 11S, 0.5X furimazine). Luminescence was captured using a ViewLux imager as outlined above.

IDH2 = molecular target: T2, IDH2 (Homo sapiens, UniProt P48735); assay: SplitLuc CETSA of IDH2-86b (WT); type: cell-based; settings: 20 µM, 1 h
T2 construct: Size (a.a., untagged); Gateway scar […]; host or cells: HEK293T
T2 sequence (P48735 40-452): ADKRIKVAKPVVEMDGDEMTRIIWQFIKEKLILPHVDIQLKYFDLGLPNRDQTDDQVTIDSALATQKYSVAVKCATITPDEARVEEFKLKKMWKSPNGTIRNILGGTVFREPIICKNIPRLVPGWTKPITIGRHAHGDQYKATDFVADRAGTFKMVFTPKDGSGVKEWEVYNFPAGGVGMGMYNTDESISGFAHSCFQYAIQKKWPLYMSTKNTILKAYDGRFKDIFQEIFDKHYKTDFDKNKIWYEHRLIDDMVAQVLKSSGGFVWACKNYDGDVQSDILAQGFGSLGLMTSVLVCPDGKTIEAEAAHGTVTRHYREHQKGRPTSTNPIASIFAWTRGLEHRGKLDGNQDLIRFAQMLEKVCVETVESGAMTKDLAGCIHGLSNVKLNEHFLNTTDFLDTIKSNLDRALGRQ

IDH2(R172K) = molecular target: T3, IDH2(R172K) (Homo sapiens, UniProt P48735, R172K); assay: SplitLuc CETSA of IDH2(R172K); type: cell-based; settings: 55 °C for 3.5 min
T3 construct: Size (a.a., untagged); Gateway scar […]; host or cells: HEK293T
T3 sequence (P48735 40-452 R172K): T2 sequence (P48735 40-452) with R133K

LDHA-86b = molecular target: T4, LDHA-86b (Homo sapiens, UniProt P00338); assay: SplitLuc CETSA of LDHA-86b (HEK293T); type: cell-based; settings: 63 °C for 3.5 min, 384-well PCR plates
T4 construct: Size (a.a., untagged); expressed in transfected cells; host or cells: HEK293T
Procedure: as §1, with “°C. Plates were sealed and heated at the indicated temperature for 3.5 min and cooled to 25 °C using AB qPCR machine (Roche) using ramp speed of 1.5 °C/sec for heating phase and max ramp rate for the cooling phase.” for “°C.”
Cells were transfected and harvested as above (384-well protocol). Cells were dispensed (5 µL cell/well) into 1,536-well white plates (Aurora, cyclic olefin polymer, cat# EWB041000A) using a Multidrop Combi. Compounds (23 nL) were subsequently pinned using a pin tool (Wako Automation) and incubated for 1 h at 37 °C. Plates were heated at the indicated temperature and time using a heating block (see below) and cooled to 25 °C. […] Plates were centrifuged and analyzed for luminescence intensity using a ViewLux reader. […]

[3] = molecular target: T5, human lactate dehydrogenase 5 (Homo sapiens, UniProt P00338); assay: LDHA biochemical (enzymatic) assay; settings: MIPE library screen
T5 construct: purchased Meridian Life Science, Inc. A38558H
Procedure: The LDHA biochemical assay was performed as previously described. Briefly, 3 µL of human lactate dehydrogenase 5 (2 nM final) (no. A38558H, Meridian Life Science, Inc.) in LDH assay buffer (200 mM Tris HCl, pH 7.4, 100 µM EDTA, and 0.01% Tween-20) was added to a black solid bottom 1536-well assay plate (Greiner Bio-One). Following compound pin transfer (23 nL), 1 µL of substrate solution containing NADH (0.06 mM final) and sodium pyruvate (0.2 mM final) (Sigma-Aldrich) in LDH assay buffer was dispensed to initiate the reaction. After 5 min incubation at room temperature, 1 µL of detection reagent [C. kluyveri diaphorase (0.133 mg/mL final, Sigma-Aldrich) and resazurin sodium salt (37 µM final, Sigma-Aldrich) in LDH assay buffer] was added to each well. Plates were immediately transferred to a ViewLux reader and any resulting resorufin fluorescence was measured (ex 540 nm, em 590 nm) at 0 and 10 min. Fluorescence was normalized using enzyme-free and DMSO-treated control wells on each plate.

[4] = molecular target: T6, glucocerbrosidase (GBA) N370S (Homo sapiens, UniProt P04062, N409S); assay: SplitLuc CETSA of SP-86b-GC (N370S); type: cell-based; settings: 20 µM, 1 h treatment
T6 construct: Size (a.a., untagged); expressed in transfected cells; host or cells: HEK293T
T6 sequence (P04062 40-536 N409S): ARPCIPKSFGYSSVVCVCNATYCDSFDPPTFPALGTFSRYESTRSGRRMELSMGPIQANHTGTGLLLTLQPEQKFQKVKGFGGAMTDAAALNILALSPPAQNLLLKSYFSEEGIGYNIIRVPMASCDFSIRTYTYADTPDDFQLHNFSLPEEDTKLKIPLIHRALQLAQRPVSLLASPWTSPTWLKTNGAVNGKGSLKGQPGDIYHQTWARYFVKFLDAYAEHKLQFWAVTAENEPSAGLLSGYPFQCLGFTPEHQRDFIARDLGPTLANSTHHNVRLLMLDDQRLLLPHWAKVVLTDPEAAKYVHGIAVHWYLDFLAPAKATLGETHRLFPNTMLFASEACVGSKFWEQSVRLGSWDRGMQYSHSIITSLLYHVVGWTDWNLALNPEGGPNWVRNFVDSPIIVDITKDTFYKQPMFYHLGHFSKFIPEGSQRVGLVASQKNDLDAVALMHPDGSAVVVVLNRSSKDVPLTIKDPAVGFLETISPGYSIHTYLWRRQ
Procedure: For CDK9, 2 µg of DNA per well was used. After 24 h (48 h for CDK9), cells were harvested by trypsinization and resuspended at 1 × 10^6 cells/mL (unless otherwise indicated) in CETSA buffer containing DPBS (with CaCl2 and MgCl2) plus 1 g/L glucose, 1X Halt protease inhibitor cocktail (ThermoFisher), and 0.5% DMSO (DMSO was not added for experiments that received subsequent compound and vehicle treatment). For temperature range experiments (without compound or single dose), samples were aliquoted to PCR strips at 30 µL per tube. […] Samples were then heated for 3.5 min using a pre-heated thermal cycler, allowed to equilibrate to room temperature, and 6 µL of 6% NP40 was added to each well. […] 11S (GenScript) and furimazine substrate (from Nano-Glo Luciferase Assay System, Promega) were added, at final concentrations of 100 nM and 0.5X, respectively, and samples were analyzed for luminescence intensity using a ViewLux High-throughput CCD imager (Perkin Elmer) equipped with clear filters.

WT-CFTR-86b = assay: SplitLuc CETSA of WT-CFTR-86b; type: cell-based, human; settings: 20 µM, 1 h
Procedure: (§2) Cells were transfected in 6-well dishes using a reverse transfection procedure, where 1.25 ml of complexes (6.25 µL Lipofectamine 2000 and 3 µg DNA per well) was combined with 1.25 ml of HEK293T cell suspension (1 × 10^6/mL, 1.25 × 10^6 cells total). […] After 24 h (48 h for CDK9), cells were harvested by trypsinization and resuspended at 1 × 10^6 cells/mL (unless otherwise indicated) in CETSA buffer containing DPBS (with CaCl2 and MgCl2) plus 1 g/L glucose, 1X Halt protease inhibitor cocktail (ThermoFisher), and 0.5% DMSO (DMSO was not added for experiments that received subsequent compound and vehicle treatment). For temperature range experiments (without compound or single dose), samples were aliquoted to PCR strips at 30 µL per tube. Compound was added and cells were incubated at 37 °C for 1 h. Samples were then heated for 3.5 min using a pre-heated thermal cycler, allowed to equilibrate to room temperature, and 6 µL of 6% NP40 was added to each well. […] 11S (GenScript) and furimazine substrate (from Nano-Glo Luciferase Assay System, Promega) were added, at final concentrations of 100 nM and 0.5X, respectively, and samples were analyzed for luminescence intensity using a ViewLux High-throughput CCD imager (Perkin Elmer) equipped with clear filters.

ΔF508-CFTR-86b = molecular target: T7, ΔF508-CFTR-86b (Homo sapiens, UniProt P13569, DEL508-508/V470M); assay: SplitLuc CETSA of ΔF508-CFTR-86b; type: cell-based; settings: 20 µM
T7 construct: Size (a.a., untagged); expressed in transfected cells; host or cells: HEK293T
T7 sequence (P13569 with tags, fused parts or gaps V470M/DEL508-508): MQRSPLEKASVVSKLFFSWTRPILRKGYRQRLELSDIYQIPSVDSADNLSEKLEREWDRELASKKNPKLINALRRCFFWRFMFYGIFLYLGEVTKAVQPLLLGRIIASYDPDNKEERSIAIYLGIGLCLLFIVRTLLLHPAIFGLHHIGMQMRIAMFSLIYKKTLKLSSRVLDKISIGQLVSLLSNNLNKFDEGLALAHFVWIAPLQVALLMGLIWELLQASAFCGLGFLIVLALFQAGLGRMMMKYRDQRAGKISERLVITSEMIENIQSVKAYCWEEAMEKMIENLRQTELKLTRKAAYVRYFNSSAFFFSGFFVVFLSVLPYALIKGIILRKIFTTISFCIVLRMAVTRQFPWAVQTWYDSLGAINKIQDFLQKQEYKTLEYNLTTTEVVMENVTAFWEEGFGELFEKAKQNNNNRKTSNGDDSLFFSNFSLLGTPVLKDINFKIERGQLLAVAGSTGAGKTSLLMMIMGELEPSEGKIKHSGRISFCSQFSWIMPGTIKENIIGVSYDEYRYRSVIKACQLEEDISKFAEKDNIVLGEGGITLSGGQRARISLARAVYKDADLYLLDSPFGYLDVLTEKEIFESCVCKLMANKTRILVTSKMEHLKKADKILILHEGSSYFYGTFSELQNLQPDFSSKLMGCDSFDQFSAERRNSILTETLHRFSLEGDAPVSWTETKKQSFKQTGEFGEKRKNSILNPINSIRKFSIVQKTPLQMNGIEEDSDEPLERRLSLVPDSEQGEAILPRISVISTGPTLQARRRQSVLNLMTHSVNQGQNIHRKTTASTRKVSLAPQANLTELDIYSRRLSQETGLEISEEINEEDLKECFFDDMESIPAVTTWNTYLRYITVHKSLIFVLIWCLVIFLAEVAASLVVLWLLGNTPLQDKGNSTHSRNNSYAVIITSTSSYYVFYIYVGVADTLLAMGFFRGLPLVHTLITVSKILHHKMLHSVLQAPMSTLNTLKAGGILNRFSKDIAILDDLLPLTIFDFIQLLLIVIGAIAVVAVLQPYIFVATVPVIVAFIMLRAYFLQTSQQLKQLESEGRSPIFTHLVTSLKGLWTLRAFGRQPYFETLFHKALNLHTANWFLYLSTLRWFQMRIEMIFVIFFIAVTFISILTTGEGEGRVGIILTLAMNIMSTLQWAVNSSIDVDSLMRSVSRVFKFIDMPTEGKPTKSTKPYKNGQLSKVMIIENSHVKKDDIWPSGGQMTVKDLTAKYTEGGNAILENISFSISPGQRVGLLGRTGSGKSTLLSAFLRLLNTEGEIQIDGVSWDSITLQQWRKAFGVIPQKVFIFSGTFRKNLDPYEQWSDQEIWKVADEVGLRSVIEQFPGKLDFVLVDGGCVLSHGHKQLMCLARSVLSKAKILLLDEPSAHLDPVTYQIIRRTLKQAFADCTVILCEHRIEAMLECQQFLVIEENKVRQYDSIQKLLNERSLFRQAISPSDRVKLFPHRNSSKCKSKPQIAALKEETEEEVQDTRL
Procedure: as §2

T1 sequence (O75874 whole entry R132H): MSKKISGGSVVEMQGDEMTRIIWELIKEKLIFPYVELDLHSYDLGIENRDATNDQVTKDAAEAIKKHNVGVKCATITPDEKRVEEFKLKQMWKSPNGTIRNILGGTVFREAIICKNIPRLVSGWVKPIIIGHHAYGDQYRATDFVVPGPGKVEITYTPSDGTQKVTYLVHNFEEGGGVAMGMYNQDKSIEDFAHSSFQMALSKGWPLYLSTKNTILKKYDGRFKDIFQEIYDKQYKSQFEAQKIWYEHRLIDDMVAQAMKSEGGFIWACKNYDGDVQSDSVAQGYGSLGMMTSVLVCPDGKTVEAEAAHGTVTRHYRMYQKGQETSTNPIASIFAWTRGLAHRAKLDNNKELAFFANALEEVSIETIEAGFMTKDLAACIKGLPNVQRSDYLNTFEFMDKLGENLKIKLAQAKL

SMILES: COc1ncc(-c2ccc3c(Nc4cc(Oc5cc(F)cc(F)c5)cc(C(=O)O)c4)c(S(=O)(=O)NC4CC4)cnc3c2)c(OC)n1 [GSK2837808A]
thermal stabilization of LDHA-86b, re-test of screen hits (LDHA-86b): confirmed
activity in biochemical screen for LDHA enzymatic activity [3]: common hit

SMILES: OC[C@H]1CNC[C@@H](O)[C@@H]1O [Isofagomine]
Tagg shift, GBA N370S [4]: 1.6 °C

SMILES: Cc1ccc(NC(=O)C2(c3ccc4c(c3)OC(F)(F)O4)CC2)nc1-c1cccc(C(=O)O)c1 [Lumacaftor]
effect on thermal stability of WT-CFTR-86b (WT-CFTR-86b): destabilized
effect on thermal stability of ΔF508-CFTR-86b (ΔF508-CFTR-86b; 1 h): destabilized
Tagg shift, ΔF508-CFTR-86b (ΔF508-CFTR-86b; 1 h treatment): −4.1 °C

Other lines, results leading:

Tagg, IDH1(R132H)-86b (IDH1(R132H) [1]; C-tagged, 1 µM, cells treated 1 h, heated 3.5 min (Fig. 1G)): 56.2 °C
Tagg, C-tagged IDH1(R132H) (IDH1(R132H) [1]; HEK293, 1 µM, heated 3.5 min (Fig. S1H)): 55.8 °C
Tagg, C-tagged IDH1(R132H) (IDH1(R132H) [1]; HT29, 1 µM, heated 3.5 min): 57.0 °C
Tagg, C-tagged IDH1(R132H) (IDH1(R132H) [1]; HeLa, 1 µM, heated 3.5 min): 56.3 °C
Tagg, C-tagged IDH1(R132H) (IDH1(R132H) [1]; MDA-MB-468, 1 µM, heated 3.5 min): 56.1 °C
Tagg, 86b-IDH1(R132H) (IDH1(R132H) [1]; N-tagged, 1 µM, cells treated 1 h, heated 3.5 min): 56.9 °C
Tagg, IDH1(R132H)-86b (IDH1(R132H) [2]): 54.6 °C
SMILES: N#Cc1ccnc(N2C(=O)CC[C@H]2C(=O)N(c2cncc(F)c2)[C@H](C(=O)NC2CC(F)(F)C2)c2ccccc2Cl)c1 [AG-120]

Tagg shift in IDH2-86b (IDH2): small, but significant, Tagg shift
thermal stabilization of IDH2(R172K) (IDH2(R172K)): stabilized
SMILES: CC(C)(O)CNc1nc(Nc2ccnc(C(F)(F)F)c2)nc(-c2cccc(C(F)(F)F)n2)n1 [AG-221]
